Measured values taken from patent US20110065632A1, “PHARMACEUTICAL COMPOSITIONS OF SOMATOSTATIN-DOPAMINE CONJUGATES” (priority 2008, published 2011).
pIC50, pKi: −log10 of the molar value.

What was measured:
hsst5 = biological target: T1, hsst5 (Homo sapiens, UniProt P35346); test: Somatostatin receptor radioligand binding assay, hsst5; settings: hsst5 Ki, CHO-K1 membranes, [125I-Tyr11]SS-14
T1 construct: expressed in transfected cells
In short: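 Membranes from CHO-K1 cells stably expressing hsst5, incubated 90 min at 25 °C with 0.05 nM [125I-Tyr11]SS-14 in 50 mM HEPES pH 7.4 with BSA, MgCl2 and protease inhibitors. Bound ligand collected by filtration. Non-specific binding defined with 1000 nM SS-14.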

hDA2 = test: Dopamine-2 receptor radioligand binding assay; parameters: species or system human; settings: [3H]spiperone
hUTII = biological target: T2, hUTII (Homo sapiens, UniProt Q9UKP6); test: hUTII inhibition constant; assay type: binding; settings: read-out: hUTII Ki
T2 sequence (Q9UKP6 1-389): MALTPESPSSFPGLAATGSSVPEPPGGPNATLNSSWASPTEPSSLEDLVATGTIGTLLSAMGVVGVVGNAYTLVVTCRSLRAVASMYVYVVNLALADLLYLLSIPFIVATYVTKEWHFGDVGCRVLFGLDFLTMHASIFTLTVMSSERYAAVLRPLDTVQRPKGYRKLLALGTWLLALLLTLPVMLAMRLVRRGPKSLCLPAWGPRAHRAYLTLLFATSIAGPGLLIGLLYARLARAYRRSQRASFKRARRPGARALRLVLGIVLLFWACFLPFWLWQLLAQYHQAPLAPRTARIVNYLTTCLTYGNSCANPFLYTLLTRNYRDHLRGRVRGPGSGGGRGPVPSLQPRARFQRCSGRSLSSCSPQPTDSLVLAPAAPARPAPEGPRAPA
Experimental: Using the discussed assays, the inhibition constants (Ki) for the five human somatostatin receptors (hSSTR1-hSSTR5) and the dopamine-2 receptor (hUTII and hDA2) were measured for the exemplified somatostatin-dopamine conjugates, as follows: […]

D2 = biological target: T3, D2 (Homo sapiens, UniProt P14416); test: cAMP Responsive Element-Luciferase reporter gene assay, D2-monotransfected HEK-293 cells; assay type: cell-based; settings: read-out: IC50 value of cAMP inhibition
T3 construct: expressed in transfected cells; host or cells: HEK-293, transient
Experimental: (§1) A cAMP Responsive Element-Luciferase reporter gene assay in HEK-293 cells was used in this assay, wherein said HEK-293 cells were transiently transfected with D2 and/or sst2 cDNA. […] In sst2-monotransfected cells, the IC50 value of cAMP inhibition of Example 1 was 0.04 nM.

sst2-D2 = biological target: T4, sst2-D2 (Homo sapiens, UniProt P14416+P30874); test: cAMP Responsive Element-Luciferase reporter gene assay, sst2-D2 co-transfected HEK-293 cells; assay type: cell-based; settings: read-out: IC50 value of cAMP inhibition
T4 construct: expressed in transfected cells; host or cells: HEK-293, transient co-transfection
Experimental: as §1

sst2 = biological target: T5, sst2 (Homo sapiens, UniProt P30874); test: cAMP Responsive Element-Luciferase reporter gene assay, sst2-monotransfected HEK-293 cells; assay type: cell-based; settings: read-out: IC50 value of cAMP inhibition
T5 construct: expressed in transfected cells; host or cells: HEK-293, transient
Experimental: as §1

T5 sequence (P30874 whole entry): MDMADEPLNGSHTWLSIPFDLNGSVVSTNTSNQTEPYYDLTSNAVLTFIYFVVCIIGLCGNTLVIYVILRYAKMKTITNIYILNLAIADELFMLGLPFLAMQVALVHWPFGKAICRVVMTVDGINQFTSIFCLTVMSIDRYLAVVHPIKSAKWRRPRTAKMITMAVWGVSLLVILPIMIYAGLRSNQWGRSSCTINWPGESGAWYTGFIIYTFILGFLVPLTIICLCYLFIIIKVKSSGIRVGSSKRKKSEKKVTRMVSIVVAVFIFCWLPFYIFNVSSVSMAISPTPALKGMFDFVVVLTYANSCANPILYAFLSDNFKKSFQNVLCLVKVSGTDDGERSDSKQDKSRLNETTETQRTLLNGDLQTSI
T4 sequence (P30874 whole entry): as above
T4 sequence (P14416 whole entry): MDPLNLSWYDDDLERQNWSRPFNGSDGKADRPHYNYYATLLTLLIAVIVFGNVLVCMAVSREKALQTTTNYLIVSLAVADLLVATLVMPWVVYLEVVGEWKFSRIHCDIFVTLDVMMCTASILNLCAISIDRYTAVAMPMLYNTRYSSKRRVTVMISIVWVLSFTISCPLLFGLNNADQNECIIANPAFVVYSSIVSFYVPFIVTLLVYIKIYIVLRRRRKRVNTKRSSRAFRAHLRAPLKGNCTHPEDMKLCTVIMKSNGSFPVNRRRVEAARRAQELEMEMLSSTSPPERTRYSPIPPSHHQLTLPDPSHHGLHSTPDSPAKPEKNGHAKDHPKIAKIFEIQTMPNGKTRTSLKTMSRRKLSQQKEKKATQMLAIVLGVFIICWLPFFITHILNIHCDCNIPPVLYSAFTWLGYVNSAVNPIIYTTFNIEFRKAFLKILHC
T1 sequence (P35346 whole entry): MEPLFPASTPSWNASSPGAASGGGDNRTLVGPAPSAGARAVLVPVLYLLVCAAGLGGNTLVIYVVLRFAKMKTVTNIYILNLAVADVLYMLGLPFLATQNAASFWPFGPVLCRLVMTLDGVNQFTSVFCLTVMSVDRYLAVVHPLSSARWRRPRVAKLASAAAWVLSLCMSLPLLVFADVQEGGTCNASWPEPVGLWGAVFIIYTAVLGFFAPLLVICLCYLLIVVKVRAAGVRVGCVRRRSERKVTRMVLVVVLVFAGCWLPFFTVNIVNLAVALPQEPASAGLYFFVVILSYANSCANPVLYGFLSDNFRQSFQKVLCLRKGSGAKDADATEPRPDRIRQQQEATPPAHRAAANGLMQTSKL
T3 sequence (P14416 whole entry): as the sequence (P14416 whole entry) above

Compound: CCCN1C[C@H](CSCC(=O)NCCCC[C@@H](NC(=O)CSC[C@@H]2C[C@@H]3c4cccc5[nH]cc(c45)C[C@H]3N(CCC)C2)C(=O)N[C@H]2CSSC[C@@H](C(=O)N[C@H](C(N)=O)[C@@H](C)O)NC(=O)[C@H](CC)NC(=O)[C@H](CCCCN)NC(=O)[C@@H](Cc3c[nH]c4ccccc34)NC(=O)[C@H](Cc3ccc(O)cc3)NC2=O)C[C@@H]2c3cccc4[nH]cc(c34)C[C@H]21 [Example 1, Dop2-DLys(Dop2)-cyclo[Cys-Tyr-DTrp-Lys-Abu-Cys]-Thr-NH2]
- pKi (hsst5): 7.38
- pKi (hDA2): 7.80
- pKi (hUTII): 6.29
- pIC50 (D2): 10.70
- pIC50 (sst2-D2): 10.70
- pIC50 (sst2): 10.40
